This is an account of results in patent publication US20250188110A1, “SPECIFIC SMALL MOLECULE INHIBITORS THAT BLOCK KMT9 METHYLTRANSFERASE ACTIVITY AND FUNCTION” (ALBERT-LUDWIGS-UNIVERSITÄT FREIBURG, priority 2021, published 2025).

For assay [1], the target named is T1, KMT9 (Homo sapiens, UniProt Q9Y5N5).
T1 sequence (Q9Y5N5 1-214): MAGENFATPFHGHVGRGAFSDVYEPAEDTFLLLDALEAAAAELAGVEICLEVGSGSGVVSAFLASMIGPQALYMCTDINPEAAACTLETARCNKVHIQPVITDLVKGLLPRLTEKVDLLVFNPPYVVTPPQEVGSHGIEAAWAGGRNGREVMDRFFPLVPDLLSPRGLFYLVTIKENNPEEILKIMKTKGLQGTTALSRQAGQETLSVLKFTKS
T1 sequence (Q9UI30 1-120 isoform Q9UI30-2 partner): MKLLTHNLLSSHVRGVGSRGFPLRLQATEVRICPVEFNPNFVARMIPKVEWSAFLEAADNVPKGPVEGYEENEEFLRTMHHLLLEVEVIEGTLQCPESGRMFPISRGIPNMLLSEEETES
Put plainly: KMT9 thermal shift assay (SyproOrange). The class given is binding. The settings on record: ΔTm; 500 µM compound, 2 μM KMT9, 5X SO; read-out: Thermal shift. Summed up: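 Recombinant KMT9 was incubated with compound and SyproOrange at 25° C in 50 mM BTP pH 8.5, 1 mM MgCl2, 1 mM DTT. It was then heated from 20° C to 95° C at 1° C per 15 s with fluorescence read each step. Tm came from a Boltzmann sigmoidal fit; ΔTm relative to DMSO control, binned in 5 K ranges.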

Assay [2] addresses T1, KMT9. Briefly: Microscale thermophoresis (MST) KMT9 binding. The settings on record: microscale thermophoresis, His-tag labelled KMT9 (20 nM); read-out: MST. In short, it runs like this:
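His-tagged KMT9 (20 nM), RED-Tris-NTA labelled, titrated with varying compound concentrations in 25 mM HEPES pH 7.5, 100 mM NaCl, 1 mM DTT, 0.05% Tween. MST at 40% MST and 100% LED power, Nano-RED excitation; Kd binned A ≤10 nM, B 10–100, C 100–1000, D >1000 nM.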
(In general: In MST a laser heats a spot of the sample, and binding alters the fluorescence response.)

Assay [3] deals with T1, KMT9. Briefly: KMT9 methyltransferase inhibition assay, 3H-SAM scintillation (entries 1-154). As to conditions: entries 1-154: 3H-SAM assay, 25 nM KMT9, 5 μM ETF1. The class given is biochemical. Summed up:
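Final 25 nM KMT9, 5 μM ETF1 (residues 140-275), 0.3 μM 3H-SAM plus 0.7 μM SAM in pH 8.5 BTP buffer, 2 h at 30° C. TCA-quenched, filter-washed, methylation counted by scintillation; % inhibition vs DMSO and no-enzyme controls, IC50 from four-parameter fit.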

Structures are written as SMILES. A value given as a limit tells only on which side of the number the result lay.

Take `CNc1ncnc2c1ccn2[C@@H]1C[C@H](CNCCCNCc2ccc(Oc3ccccc3)cc2)[C@@H](O)[C@H]1O` [332 (236), (1R,2S,3R,5R)-3-(4-(methylamino)-7H-pyrrolo[2,3-d]pyrimidin-7-yl)-5-(((3-((4-phenoxybenzyl)amino)propyl)amino)methyl) cyclopentane-1,2-diol]: the ΔTm at 500 µM on KMT9 [1] is no more than 10 °C. The Kd at KMT9 [2] was greater than 1000 nM. For the same compound, the IC50 (commonly the concentration that gives 50% inhibition) on KMT9 [3] was greater than 10 µM.

On to `CNc1ncnc2c1ccn2[C@@H]1C[C@H](COCCNCCc2ccccc2)[C@@H](O)[C@H]1O` [419 (290), (1R,2S,3R,5R)-3-[4-(Methylamino)pyrrolo[2,3-d]pyrimidin-7-yl]-5-({2-[(2-phenylethyl)amino]ethoxy}methyl) cyclopentane-1,2-diol], for which, on KMT9 [1], the ΔTm at 500 µM was no more than 10 °C. The Kd on KMT9 [2] was greater than 1000 nM. The IC50 against KMT9 [3] is greater than 10 µM.

For `CNc1ncnc2c1ccn2[C@@H]1O[C@H](CNCCCNCCc2ccccc2)[C@@H](O)[C@H]1O` [309 (208), (2R,3R,45,5R)-2-(4-(methylamino)-7H-pyrrolo[2,3-d]pyrimidin-7-yl)-5-(((3-(phenethylamino)pronyl)amino)methyl) tetrahydrofuran-3.4-diol], the ΔTm at 500 µM on KMT9 [1] fell in the range of 10 to 15 °C. For the same compound, the Kd at KMT9 [2] is greater than 1000 nM. This compound also displayed an IC50 on KMT9 [3] greater than 10 µM.

Turning to `COCCn1cc(-c2ccc(CCNCCCNC[C@H]3O[C@@H](n4cnc5c(N)ncnc54)[C@H](O)[C@@H]3O)cc2)nn1` [295 (192), (2R,3R,4S,5R)-2-(6-amino-9H-purin-9-yl)-5-(((3-((4-(1-(2-methoxyethyl)-1H-1,2,3-triazol-4-yl)phenethyl)amino)propyl)amino)methyl)tetrahydrofuran-3,4-diol], on KMT9 [1], the ΔTm at 500 µM is no more than 10 °C. Further, the Kd on KMT9 [2] was 100 to 1000 nM. Further, the IC50 on KMT9 [3] was greater than 10 µM.

As to `CNc1ncnc2c1ccn2[C@@H]1C[C@H](CN(CCCNCCc2ccccc2)c2cn[nH]c2)[C@@H](O)[C@H]1O` [442 (314), (1R,2S,3R,5R)-3-(4-(Methylamino)-7H-pyrrolo[2,3-d]pyrimidin-7-yl)-5-(((3-(phenethylamino)propyl)(1H-pyrazol-4-yl)amino)methyl) cyclopentane-1,2-diol], the ΔTm at 500 µM at KMT9 [1] fell in the range of 10 to 15 °C. For the same compound, at KMT9 [2], the Kd lay within 100 to 1000 nM. The compound further displayed an IC50 against KMT9 [3] of 1 to 10 µM.

Regarding `O=C1CCc2cn([C@@H]3C[C@H](CNCCCNCCc4ccccc4)[C@@H](O)[C@H]3O)c3ncnc(c23)N1` [Compound 627, 2-((1R,2S,3R,4R)-2,3-dihydroxy-4-(((3-(phenethylamino)propyl)amino)methyl)cyclopentyl)-2,6,8,9-tetrahydro-7H-2,3,5,6-tetraazabenzo[cd]azulen-7-one], on KMT9 [1], the ΔTm at 500 µM is no more than 10 °C. Further, the Kd on KMT9 [2] was in the range of 100 to 1000 nM. This compound also had an IC50 at KMT9 [3] greater than 10 µM.

For `CCC(=O)NCCNC[C@H]1O[C@@H](n2cnc3c(N)ncnc32)[C@H](O)[C@@H]1O` [315 (216), N-(2-((((2R,3S,4R,5R)-5-(6-amino-9H-purin-9-yl)-3,4-dihydroxytetrahydrofuran-2-yl)methyl)amino)ethyl)propionamide], on KMT9 [1], the ΔTm at 500 µM is no more than 10 °C. Moreover, the Kd at KMT9 [2] is greater than 1000 nM. At KMT9 [3], this compound had an IC50 greater than 10 µM.

Regarding `Nc1ncnc2c1c(-c1nccs1)cn2[C@@H]1C[C@H](CNCCCNCCc2ccccc2)[C@@H](O)[C@H]1O` [474 (348), (1R,2S,3R,5R)-3-(4-Amino-5-(thiazol-2-yl)-7H-pyrrolo[2,3-d]pyrimidin-7-yl)-5-(((3-(phenethylamino)propyl)amino)methyl) cyclopentane-1,2-diol], at KMT9 [1], the ΔTm at 500 µM was in the range of 15 to 20 °C. Moreover, the Kd on KMT9 [2] lay within 10 to 100 nM. This compound also gave an IC50 on KMT9 [3] of 1 to 10 µM.

Consider `Nc1ncnc2c1c(Br)cn2[C@@H]1C[C@H](CNCCCNCCc2ccccc2)[C@@H](O)[C@H]1O` [463 (337), (1R,2S,3R,5R)-3-(4-Amino-5-bromo-7H-pyrrolo[2,3-d]pyrimidin-7-yl)-5-(((3-(phenethylamino)propyl)amino)methyl) cyclopentane-1,2-diol], for which the ΔTm at 500 µM on KMT9 [1] lay within 15 to 20 °C. Moreover, the Kd at KMT9 [2] was 10 to 100 nM. The compound further yielded an IC50 on KMT9 [3] greater than 10 µM.

As for `Nc1ncnc2c1c(C1CC1)cn2[C@@H]1C[C@H](CNCCCNCCc2ccccc2)[C@@H](O)[C@H]1O` [468 (342), (1R,2S,3R,5R)-3-(4-Amino-5-cyclopropyl-7H-pyrrolo[2,3-d]pyrimidin-7-yl)-5-(((3-(phenethylamino)propyl)amino)methyl) cyclopentane-1,2-diol], the ΔTm at 500 µM at KMT9 [1] fell in the range of 15 to 20 °C. Further, the Kd on KMT9 [2] was 100 to 1000 nM. Also, the concentration for half-maximal inhibition (IC50) against KMT9 [3] lay within 1 to 10 µM.

In the case of `Nc1ncnc2c1c(I)cn2[C@@H]1C[C@H](CNCCCNCCc2ccccc2)[C@@H](O)[C@H]1O` [343 (246)], at KMT9 [1], the ΔTm at 500 µM is 15 to 20 °C. Further, at KMT9 [2], the Kd lay within 100 to 1000 nM. The IC50 on KMT9 [3] lay within 0.1 to 1 µM.

With `CNc1ncnc2c1ccn2[C@@H]1C[C@H](CNC(=O)C2CCCNC2)[C@@H](O)[C@H]1O` (stereo partly drawn) [418 (289), N-(((1R,2R,3S,4R)-2,3-dihydroxy-4-(4-(methylamino)-7H-pyrrolo[2,3-d]pyrimidin-7-yl)cyclopentyl)methyl) piperidine-3-carboxamide], the ΔTm at 500 µM on KMT9 [1] is no more than 10 °C. The Kd on KMT9 [2] was greater than 1000 nM. On KMT9 [3], this compound had an IC50 greater than 10 µM.

With `CNc1ncnc2c1ccn2[C@@H]1C[C@H](C(=O)NCCCNCCc2cccc(Oc3ccccc3)c2)[C@@H](O)[C@H]1O` [354 (258), (1S,2R,3S,4R)-2,3-dihydroxy-4-(4-(methylamino)-7H-pyrrolo[2,3-d]pyrimidin-7-yl)-N-(3-((3-phenoxyphenethyl)amino)propyl) cyclopentane-1-carboxamide], the ΔTm at 500 µM at KMT9 [1] was in the range of 15 to 20 °C. Further, the Kd at KMT9 [2] was in the range of 10 to 100 nM. This compound came in with an IC50 against KMT9 [3] of 1 to 10 µM.

With `NC[C@H]1C[C@@H](n2cc3c4c(ncnc42)NC(=O)CC3)[C@H](O)[C@@H]1O` [Compound 626, 2-((1R,2S,3R,4R)-4-(Aminomethyl)-2,3-dihydroxycyclopentyl)-2,6,8,9-tetrahydro-7H-2,3,5,6-tetraazabenzo[cd]azulen-7-one], the ΔTm at 500 µM at KMT9 [1] is no more than 10 °C. Besides, the Kd at KMT9 [2] was greater than 1000 nM. Further, the IC50 against KMT9 [3] is greater than 10 µM.

Take `CCc1cn([C@@H]2C[C@H](CNCCCNCCc3ccccc3)[C@@H](O)[C@H]2O)c2ncnc(Cl)c12` [Compound 632, (1R,2S,3R,5R)-3-(4-chloro-5-ethyl-7H-pyrrolo[2,3-d]pyrimidin-7-yl)-5-(((3-(phenethylamino)propyl)amino)methyl)cyclopentane-1,2-diol]: the ΔTm at 500 µM on KMT9 [1] was no more than 10 °C. Also, the Kd at KMT9 [2] is greater than 1000 nM. For the same compound, the IC50 against KMT9 [3] is greater than 10 µM.

Regarding `CCc1cn([C@@H]2C[C@H](CNCCCNCCc3ccccc3)[C@@H](O)[C@H]2O)c2ncnc(C)c12` [Compound 611, (1R,2S,3R,5R)-3-(5-ethyl-4-methyl-7H-pyrrolo[2,3-d]pyrimidin-7-yl)-5-(((3-(phenethylamino)propyl)amino)methyl)cyclopentane-1,2-diol], on KMT9 [1], the ΔTm at 500 µM was no more than 10 °C. The Kd on KMT9 [2] was greater than 1000 nM. On KMT9 [3], this compound showed an IC50 greater than 10 µM.

For the compound `Nc1ncnc2c1c(-c1nccs1)cn2[C@@H]1C[C@H](C2CCNCC2)[C@@H](O)[C@H]1O` [487 (360)], the ΔTm at 500 µM at KMT9 [1] lay within 15 to 20 °C. For the same compound, the Kd at KMT9 [2] lay in the range of 10 to 100 nM. The same compound displayed an IC50 against KMT9 [3] of 1 to 10 µM.

Consider `CNc1ncnc2c1ccn2[C@@H]1C[C@H](CN(CCCN)c2cncs2)[C@@H](O)[C@H]1O` [437 (309), (1S,2R,3R,5R)-3-{[(3-Aminopropyl)(1,3-thiazol-5-yl)amino]methyl}-5-[4-(methylamino)pyrrolo[2,3-d]pyrimidin-7-yl]cyclopentane-1,2-diol], for which the ΔTm at 500 µM on KMT9 [1] is no more than 10 °C. Besides, on KMT9 [2], the Kd is greater than 1000 nM. Moreover, at KMT9 [3], the IC50 lay within 1 to 10 µM.

As for `O[C@@H]1[C@H](O)[C@@H](C2CCNCC2)C[C@H]1n1cc2c3c(ncnc31)NCCC2` [Compound 490, (1S,2R,3R,5R)-3-(piperidin-4-yl)-5-(6,7,8,9-tetrahydro-2H-2,3,5,6-tetraazabenzo[cd]azulen-2-yl)cyclopentane-1,2-diol], the ΔTm at 500 µM at KMT9 [1] lay in the range of 10 to 15 °C. Besides, at KMT9 [2], the Kd lay within 100 to 1000 nM. Besides, on KMT9 [3], the IC50 fell in the range of 1 to 10 µM.

Regarding `Nc1ncnc2c1c(-c1ccn(Cc3ccccc3)n1)cn2[C@@H]1C[C@H](C2CCNCC2)[C@@H](O)[C@H]1O` [Compound 489, (1R,2S,3R,5R)-3-(4-amino-5-(1-benzyl-1H-pyrazol-3-yl)-7H-pyrrolo[2,3-d]pyrimidin-7-yl)-5-(piperidin-4-yl)cyclopentane-1,2-diol], the ΔTm at 500 µM on KMT9 [1] fell in the range of 15 to 20 °C. In addition, at KMT9 [2], the Kd is 10 to 100 nM. Besides, on KMT9 [3], the 50% inhibitory concentration (IC50) lay within 1 to 10 µM.
